Test results taken from US9464082B2, “Aryl and arylalkyl substituted pyrazolyl and pyrimidinyl tricyclic enones as antioxidant inflammation modulators” (AbbVie Inc., priority 2014, dated 2016).

Tested on: IFNγ-Induced NO Production
Experiment: Nitric Oxide Suppression Assay (Suppression of IFNγ-Induced NO Production)
Format: cell-based
Conditions: RAW264.7; RAW 264.7 mouse macrophage cells; 2 hour pre-treatment with compound (3 μM to 0.3 nM, 10 point curve); 20 ng/mL interferon gamma, ~18 hour; Griess detection; n=2-3 in duplicates
Description: RAW 264.7, a mouse macrophage cell line, was obtained from American Type Culture Collection (Manassas Va.) and maintained in the log phase of growth in Dulbecco's Modified Eagle's Medium (DMEM), 10% heat inactivated fetal calf serum and 100 units/mL antibiotic-antimycotic (AA). Cells were cultured and maintained in a humidified incubator at 37° C. under 5% CO2 and 95% air. Cells were sub-cultured every 3 days by scraping and were not used beyond passage 20. All cell culture supplies were obtained from Life Technologies (Grand Island, N.Y.).
RAW 264.7 cells were plated 1 day in advance of experiment at a concentration of 80,000 cells/well onto CellBIND® 96 well plates (Corning, N.Y.) in a total volume of 100 μL. The next day, pre-treat cells with compounds (from 3 μM to 0.3 nM serially diluted in a 10 point curve) from a 10× stock by adding 10 μL per well in complete DMEM media containing 10% fetal calf serum. The plates were centrifuged for 3 minutes at 400×g at room temperature followed by 2 hour incubation at 37° C. The cells were then incubated overnight at 37° C. with 10 μL of the insult, interferon gamma (R&D Systems, Minneapolis, Minn.), from a 10× stock for a final concentration of 20 ng/mL. The plates were centrifuged for 3 minutes at 400×g at room temperature followed by ˜18 hour incubation at 37° C. The following day, transfer 50 μL cell culture supernatant from each well into a clear bottom 96 well plate and follow the instructions from Promega's Griess Detection Kit #G2930 (Madison, Wis.) which involves the addition of 50 μL of the provided sulfanilamide solution for a 5-10 minute incubation at room temperature. Next add 50 μL of the provided N-1-napthylethylenediamine dihydrochloride (NED) solution for a 5-10 minute incubation at room temperature and protected from light. If any air bubbles were introduced into the well, the plates need to be centrifuged for 5 minutes at 400×g at room temperature to avoid interference with absorbance readings. The plates were read for absorbance within 30 minutes with a filter between 520 nm and 550 nm.
For the ability of compounds to suppress the increase in nitric oxide release, the percent maximal intensity of nitric oxide detected in each well was normalized to that induced by the peak value for 20 ng/mL of interferon gamma alone and plotted against the compound concentration to calculate IC50 values and to control for plate-to-plate variability. Concentration-response data were analyzed using GraphPad Prism (San Diego, Calif.); the IC50 values were derived from a single curve fit to the mean data of n=2-3, in duplicates.
All compounds were dissolved in dimethyl sulfoxide at 10 mM stock solutions and tested at a concentration that the dimethyl sulfoxide levels never exceeded 1%.

Row | SMILES | IC50 [nM]
1 | C[C@@H]1C(=O)C(C#N)=C[C@]2(c3ccccc3)c3n[nH]c(-c4cnn(-c5ccncc5)c4)c3CC[C@@H]12 [Example 159, (5aS,6S,9aR)-6-methyl-7-oxo-9a-phenyl-3-[1-(pyridin-4-yl)-1H-pyrazol-4-yl]-4,5,5a,6,7,9a-hexahydro-2H-benzo[g]indazole-8-carbonitrile] | 33.8
2 | C[C@@H]1C(=O)C(C#N)=C[C@]2(c3ccccc3)c3nn(C(=O)Oc4ccccc4)cc3CC[C@@H]12 [Example 37, phenyl (5aS,6S,9aR)-8-cyano-6-methyl-7-oxo-9a-phenyl-4,5,5a,6,7,9a-hexahydro-2H-benzo[g]indazole-2-carboxylate] | 60.5
3 | Cc1nc(-c2cccc(-c3ccc(O)cc3)c2)c2c(n1)[C@@]1(c3ccccc3)C=C(C#N)C(=O)[C@@H](C)[C@@H]1CC2 [Example 119, (6aS,7S,10aR)-4-(4′-hydroxybiphenyl-3-yl)-2,7-dimethyl-8-oxo-10a-phenyl-5,6,6a,7,8,10a-hexahydrobenzo[h]quinazoline-9-carbonitrile] | 6.5
4 | Cc1nc(-c2ccccc2)c2c(n1)[C@@]1(c3ccccc3)C=C(C#N)C(=O)[C@@H](C)[C@@H]1CC2 [Example 21, (6aS,7S,10aR)-2,7-dimethyl-8-oxo-4,10a-diphenyl-5,6,6a,7,8,10a-hexahydrobenzo[h]quinazoline-9-carbonitrile] | 9.94
5 | COc1ccccc1-c1nc(OC)c2c(n1)[C@@]1(c3ccccc3)C=C(C#N)C(=O)[C@@H](C)[C@@H]1CC2 [Example 10, (6aS,7S,10aR)-4-methoxy-2-(2-methoxyphenyl)-7-methyl-8-oxo-10a-phenyl-5,6,6a,7,8,10a-hexahydrobenzo[h]quinazoline-9-carbonitrile] | 22.5
6 | Cc1nc(-c2ccc(-c3[nH]ncc3Br)cc2)c2c(n1)[C@@]1(c3ccc(F)cc3)C=C(C#N)C(=O)[C@@H](C)[C@@H]1CC2 [Example 81, (6aS,7S,10aR)-4-[4-(4-bromo-1H-pyrazol-5-yl)phenyl]-10a-(4-fluorophenyl)-2,7-dimethyl-8-oxo-5,6,6a,7,8,10a-hexahydrobenzo[h]quinazoline-9-carbonitrile] | 35
7 | C[C@@H]1C(=O)C(C#N)=C[C@]2(c3ccccc3)c3nn(C)cc3CC[C@@H]12 [Example 52, (5aS,6S,9aR)-2,6-dimethyl-7-oxo-9a-phenyl-4,5,5a,6,7,9a-hexahydro-2H-benzo[g]indazole-8-carbonitrile] | 53.2
8 | C[C@@H]1C(=O)C(C#N)=C[C@]2(c3cccc(C(=O)O)c3)c3n[nH]cc3CC[C@@H]12 [Example 71, 3-[(5aS,6S,9aR)-8-cyano-6-methyl-7-oxo-2,4,5,5a,6,7-hexahydro-9aH-benzo[g]indazol-9a-yl]benzoic acid] | 1470
9 | CC(=O)n1cc2c(n1)[C@@]1(c3ccccc3)C=C(C#N)C(=O)[C@@H](C)[C@@H]1CC2 [Example 28, (5aS,6S,9aR)-2-acetyl-6-methyl-7-oxo-9a-phenyl-4,5,5a,6,7,9a-hexahydro-2H-benzo[g]indazole-8-carbonitrile] | 39
10 | COC(=O)c1ccc([C@]23C=C(C#N)C(=O)[C@@H](C)[C@@H]2CCc2c(-c4cncn4C)nc(C)nc23)cc1 [Example 175, methyl 4-[(6aS,7S,10aR)-9-cyano-2,7-dimethyl-4-(1-methyl-1H-imidazol-5-yl)-8-oxo-6,6a,7,8-tetrahydrobenzo[h]quinazolin-10a(5H)-yl]benzoate] | 2
11 | Cc1nc(-c2ccc(-c3ccncc3)cc2)c2c(n1)[C@@]1(c3ccccc3)C=C(C#N)C(=O)[C@@H](C)[C@@H]1CC2 [Example 122, (6aS,7S,10aR)-2,7-dimethyl-8-oxo-10a-phenyl-4-[4-(pyridin-4-yl)phenyl]-5,6,6a,7,8,10a-hexahydrobenzo[h]quinazoline-9-carbonitrile] | 12.7
12 | CC(=O)OCCc1cccc(-c2nc(C)nc3c2CC[C@H]2[C@H](C)C(=O)C(C#N)=C[C@]32c2ccccc2)c1 [Example 46, 2-{3-[(6aS,7S,10aR)-9-cyano-2,7-dimethyl-8-oxo-10a-phenyl-5,6,6a,7,8,10a-hexahydrobenzo[h]quinazolin-4-yl]phenyl}ethyl acetate] | 7.52
13 | C[C@@H]1C(=O)C(C#N)=C[C@]2(c3ccc(F)cc3)c3nn(C(=O)CN)cc3CC[C@@H]12 [Example 82, (5aS,6S,9aR)-9a-(4-fluorophenyl)-2-glycyl-6-methyl-7-oxo-4,5,5a,6,7,9a-hexahydro-2H-benzo[g]indazole-8-carbonitrile] | 31.3
14 | C[C@@H]1C(=O)C(C#N)=C[C@]2(c3ccccc3)c3nc(-c4cccnc4)ncc3CC[C@@H]12 [Example 11, (6aS,7S,10aR)-7-methyl-8-oxo-10a-phenyl-2-(pyridin-3-yl)-5,6,6a,7,8,10a-hexahydrobenzo[h]quinazoline-9-carbonitrile] | 6.03
15 | C[C@@H]1C(=O)C(C#N)=C[C@]2(c3ccccc3)C3=NN(C)[C@@H](c4ccccc4)[C@H]3CC[C@@H]12 [Example 105, (3R,3aR,5aS,6S,9aR)-2,6-dimethyl-7-oxo-3,9a-diphenyl-3,3a,4,5,5a,6,7,9a-octahydro-2H-benzo[g]indazole-8-carbonitrile] | 34.5
16 | COc1ncc(-c2cccc(-c3c4c(nn3C)[C@@]3(c5ccccc5)C=C(C#N)C(=O)[C@@H](C)[C@@H]3CC4)c2)cn1 [Example 153, (5aS,6S,9aR)-3-[3-(2-methoxypyrimidin-5-yl)phenyl]-2,6-dimethyl-7-oxo-9a-phenyl-4,5,5a,6,7,9a-hexahydro-2H-benzo[g]indazole-8-carbonitrile] | 6.46
17 | Cc1nc(-c2ccc(-c3cncnc3)cc2)c2c(n1)[C@@]1(c3ccccc3)C=C(C#N)C(=O)[C@@H](C)[C@@H]1CC2 [Example 129, (6aS,7S,10aR)-2,7-dimethyl-8-oxo-10a-phenyl-4-[4-(pyrimidin-5-yl)phenyl]-5,6,6a,7,8,10a-hexahydrobenzo[h]quinazoline-9-carbonitrile] | 13
18 | COC(=O)c1ccc(-c2ncc3c(n2)[C@@]2(c4ccccc4)C=C(C#N)C(=O)[C@@H](C)[C@@H]2CC3)cc1 [Example 75, methyl 4-[(6aS,7S,10aR)-9-cyano-7-methyl-8-oxo-10a-phenyl-5,6,6a,7,8,10a-hexahydrobenzo[h]quinazolin-2-yl]benzoate] | 12.7
19 | Cc1nc(-c2cccc(-c3ccc(C(N)=O)cc3)c2)c2c(n1)[C@@]1(c3ccccc3)C=C(C#N)C(=O)[C@@H](C)[C@@H]1CC2 [Example 135, 3′-[(6aS,7S,10aR)-9-cyano-2,7-dimethyl-8-oxo-10a-phenyl-5,6,6a,7,8,10a-hexahydrobenzo[h]quinazolin-4-yl]biphenyl-4-carboxamide] | 8.22
20 | C[C@@H]1C(=O)C(C#N)=C[C@]2(c3ccccc3)c3nn(S(=O)(=O)c4ccccc4)cc3CC[C@@H]12 [Example 41, (5aS,6S,9aR)-6-methyl-7-oxo-9a-phenyl-2-(phenylsulfonyl)-4,5,5a,6,7,9a-hexahydro-2H-benzo[g]indazole-8-carbonitrile] | 1180
21 | COc1nc(Nc2ccccc2)nc2c1CC[C@H]1[C@H](C)C(=O)C(C#N)=C[C@]21c1ccccc1 [Example 14, (6aS,7S,10aR)-2-anilino-4-methoxy-7-methyl-8-oxo-10a-phenyl-5,6,6a,7,8,10a-hexahydrobenzo[h]quinazoline-9-carbonitrile] | 11.4
22 | COc1nc(C)nc2c1CC[C@H]1[C@H](C)C(=O)C(C#N)=C[C@]21c1ccccc1 [Example 13, (6aS,7S,10aR)-4-methoxy-2,7-dimethyl-8-oxo-10a-phenyl-5,6,6a,7,8,10a-hexahydrobenzo[h]quinazoline-9-carbonitrile] | 4.8
23 | COc1nc(-c2ccccc2)nc2c1CC[C@H]1[C@H](C)C(=O)C(C#N)=C[C@]21c1ccccc1 (racemic) [Example 8, rac-(6aS,7S,10aR)-4-methoxy-7-methyl-8-oxo-2,10a-diphenyl-5,6,6a,7,8,10a-hexahydrobenzo[h]quinazoline-9-carbonitrile] | 96.3
24 | Cc1nc(-c2cncnc2)c2c(n1)[C@@]1(c3ccc(F)cc3)C=C(C#N)C(=O)[C@@H](C)[C@@H]1CC2 [Example 68, (6aS,7S,10aR)-10a-(4-fluorophenyl)-2,7-dimethyl-8-oxo-4-(pyrimidin-5-yl)-5,6,6a,7,8,10a-hexahydrobenzo[h]quinazoline-9-carbonitrile] | 33.6
